Data set [1] concerns candida. Description: DNP hyperthermia, oral candidiasis (Example 2). The format is in vivo, human. The protocol: Pretreatment protocol: all medications were stopped 2 weeks prior to treatment. The patient refused taking diazepam, placement of a Foley catheter and oxygen face mask. They dressed themself into a dry cold water immersion suit (Stearns, ISS-590I, Universal Adult) designed to prevent heat loss and modified for easy placement of physiologic monitors. Equipment for measurement of heart rate, temperature, carbon dioxide production and Kcal of heat produced were conducted as outlined in Example 1. An oral breathing tube was used to measure V02 from room air. Urine output was measured when the patient voluntarily urinated through a “Texas” catheter (superficial condom tightly fitted around the head of the penis with tubing connected to urine collection bag). The patient was informed that hyperthermia would be administered as tolerated by their stamina and monitored clinical parameters, not to exceed 5 hours, on a daily or every other day basis, for a total of 5 sessions.
Treatment procedure: Baseline reading for 5 minutes established an average V02 of 300 cc/min. An initial dose of 2 mg/kg of DNP was administered over a 2 minute period. V02 increased and stabilized at 15 minutes at 340-380 cc/min. An additional 2 mg/kg DNP infusion was given, the V02 increased and stabilized at 610-630 cc/min. […]

Data set [2] concerns metastatic, hormone-refractory prostate carcinoma. Description: DNP with methylene blue, prostate carcinoma (Example 9). The data set is classed as in vivo, human. The protocol:
Pretreatment protocol: the patient was transfused with 2 units of packed red blood cells 48 hours prior to undergoing treatment. Intravenous fluids (Lactated Ringer's solution) were administered at a rate of 100 cc/hour. The patient was dressed in comfortable cotton clothing and placed in an air-conditioned room. Equipment for monitoring heart rate and rhythm, temperature and oxygen consumption was utilized as outlined in Example 1. An oral breathing tube was used to conduct TEEM VO2 measurements. Oxygen supplementation and “crash cart” was available at bedside.
Treatment protocol: baseline VO2 measurements for 8 minutes established an average VO2 of 250 cc/minute. DNP, at a dose of 2 mg/kg, was infused intravenously over a 2 minute period. Repeat VO2 at 20 minutes was stabilized at 340-360 cc/minute. An additional 1 mg/kg DNP infusion was administered, and 15 minutes thereafter the VO2 increased and stabilized at 420 cc/minute. Ten minutes thereafter, an infusion of methylene blue, 2 mg/kg (dissolved in a […] pyrogen-free isotonic saline solution-35 ml) was administered over 20 minutes.
By hour 3, VO2 declined to the 360-380 cc/minute range. An additional 1 mg/kg dose of DNP was infused over a 2 minute period. […] Rectal probe temperature increased to a maximum of 1.3° C. over baseline. […] The protocol was repeated every other day for a total of 15 treatments (30 days). Therapy was discontinued for 2 weeks and the cycle was again repeated for an additional 30 days, treatment being administered every other day.

For data set [3], the system named is dimethyl benzo-dithionaphthene derived ascites fibrosarcoma. Description: DNP induced hyperthermia with thermosensitive liposomes, ascites fibrosarcoma (Example 5). The data set is classed as in vivo, Swiss albino mice. The protocol:
The anticancer drug dacarbazine [5-(3,3′-dimethyl-1-triazino) imidazole-4-carboxamide] was encapsulated in these heat-sensitive liposomes at a concentration of 3 mg/ml. The in vivo efficacy of the thermosensitive, liposome encapsulated dacarbazine was tested on Swiss albino mice transplanted with a dimethyl benzo-dithionaphthene derived ascites fibrosarcoma subjected to DNP induced hyperthermia.
Male, 10-12-week-old, Swiss albino mice were injected with 3×10^6 viable fibrosarcoma cells into the peritoneum. After 15 days the animals were divided into various treatment and control groups receiving intraperitoneal injections of free dacarbazine, DNP alone, DNP+empty liposomes and DNP+liposome encapsulated dacarbazine. DNP induced hyperthermia was recorded with neonatal rectal and 22 ga. hypodermic YSI probes. Temperatures were recorded 30 minutes after a 20 mg/kg intraperitoneal dose of DNP. DNP was administered every day for a total of 5 doses. In all cases the hypodermic, intraperitoneal temperatures were 1° C. higher than the rectal.

Data set [4] concerns hepatitis C virus. Description: DNP with interferon-alpha, chronic hepatitis C (Example 10). The format is in vivo, human. The protocol:
Pretreatment protocol: each evening prior to treatment the patient was instructed not to eat after 7 pm and dress in cotton clothes. Approximately 6 hours prior to intravenous DNP administration they were to be given 1.5 million units of subcutaneous interferon-alpha every 3rd day. Repeat blood work, including CBC and platelet count, AST, ALT, and hepatitis C-RNA levels would be initially obtained at 48 hours and weekly thereafter. No efforts were to be made to prevent body heat loss. A single intravenous line was placed with a 21-gauge interacath. Heart rate, rectal thermistor, and VO2 monitoring was conducted during therapy as outlined.
Treatment procedure: the patient presented themself for outpatient treatment and was given a subcutaneous dose of 1.5 million units of interferon-alpha. Approximately 6 hours thereafter, at 1 pm, a baseline VO2 recording of 5 minutes was 160 cc/min. They were infused with 1 mg/kg DNP over a 2 minute period. At 20 minutes, their VO2 increased and stabilized at approximately 210 cc/min. A second dose of 1 mg/kg DNP was infused and the VO2 peaked 20 minutes later at 250 cc/min. An additional dose of 2.0 mg/kg DNP was given 30 minutes following the second dose. […] The patient's rectal temperature increased and never exceeded 1.3° C. above their normal baseline. Two hours after their last dose of DNP, their VO2 declined to 280 cc/min. An additional 2 mg/kg dose of DNP was administered. The patients VO2 increased and stabilized 20 minutes thereafter to a level of 420 cc/min. […] Throughout treatment the patient was permitted to drink fluids ad libitum. […] The 5 day treatment protocol was repeated after a 2 day “DNP rest period”. This regimen was repeated times 3. Subcutaneous interferon-alpha was administered for a total of 10 weeks.

One molecule from patent US7635722B1, “Chemical induced intracellular hyperthermia” (priority 1998, dated 2009) can be followed below.

With `O=[N+]([O-])c1ccc(O)c([N+](=O)[O-])c1` [DNP, 2,4-dinitrophenol], the oral candidiasis entry in data set [1] (3rd day of therapy) is “no evidence of oral candidiasis”. For the same molecule, in data set [1] (immediately after the first treatment), the “improvement of oral candidiasis” value is given as 50%. The bone pain result in data set [2] (6th day following therapy, DNP with methylene blue) was “decrease in their low back, hip and other areas of bone pain”. The same molecule had a PSA values in data set [2] (6 weeks after treatment) of 30 ng/mL. Besides, in data set [2] (10 weeks after initiation of treatment), the “tumor necrotic on prostatic biopsy” value was determined as 95%. In data set [2] (by 2 weeks), the analgesic use result is “off all narcotic (morphine) analgesics”. In data set [2] (day 8), the acid phosphatase entry is “remained unchanged” and the “increase in PSA level” value is given as “approximately 120%”. The PSA level in data set [2] (day 8, pretreatment 58 ng/ml) is 125 ng/mL. The repeat prostate biopsy entry in data set [2] (end of month 4, oral DNP 250 mg twice a day after IV therapy) is given as “very few intact acini or viable acinar cells”. In data set [2] (three months after initiation of therapy), this molecule gave a weight gained of 8.2 kg. Moreover, in data set [3] (30 minutes after 20 mg/kg intraperitoneal DNP), the “hypodermic, intraperitoneal temperature higher than the rectal” value came to 1 °C. Besides, in data set [3] (FIG. 20, DNP 20 mg/kg ip every day, 5 doses), the “survival curves in comparison to controls” value is listed as “significantly improved”. This molecule also showed an animals remained alive in data set [3] (sham treated animals all died by 60) of at least 100 days. In addition, in data set [4] (18 months after therapy), the ALT entry is given as “normalization” and the HCV viral genome entry was “remained cleared from their bloodstream”. Besides, in data set [4] (after 48 hours, DNP with interferon-alpha), the “decrease of hepatitis C-RNA viral load” value is on record as “approximately 2 logs”. Further, the “increase of alanine transaminase (ALT) levels” value in data set [4] (at 48 hours, elevated until week 3) was 7 fold. Moreover, the “increase of alkaline phosphatase levels” value in data set [4] (at 48 hours, pretreatment levels at day 7) was 2 fold. The “CBC, bilirubin, and blood urea nitrogen (BUN)” value in data set [4] (during treatment) is recorded as “remained within normal limits”. Besides, the “further decrease of viral load” value in data set [4] (over the next 5 days) is listed as “an additional log”. In addition, in data set [4] (week 2 and thereafter), the HCV-RNA result is “undetectable”.
